Molecular target: T1, chymotrypsin (Bos taurus, UniProt P00766)
T1 construct: purchased Sigma-Aldrich (supplement); Calbiochem; host or cells: bovine pancreas
Assay: Activity-based profiling of chymotrypsin (SDS-PAGE, streptavidin-HRP western blot)
Assay type: binding, bovine
Conditions: 50 μM ABP, 30 min, 37°C; blocked by heat inactivation
Experimental: Samples of recombinant protease (trypsin, plasmin, thrombin, chymotrypsin, or HNE, as indicated in the relevant figure legends) were treated with each of the newly synthesized compounds at a concentration of 50 μM, for 30 min, at 37°C. A control sample (no ABP) was prepared by treating the recombinant protease with solvent vehicle (DMF) only, used to prepare the stock solution of each ABP. Samples were also pre-treated (±90°C for 30 min) before being incubated with each putative ABP. With trypsin and thrombin, further samples were prepared where Z-Arg^P-(OPh)2 or NAP559, respectively, was added 30 min prior to the addition of the ABP under examination. […]
FIGURE 7 Activity Based Profiling of serine proteases by peptide N-Alkyl glycine carbamates. […] CF Sol (sample 26w) was used at a final concentration of 2.5% (v/v), and the level of NE contained therein was measured using Succinyl-Ala-Ala-Pro-Val-NHMec (50 μM), in the absence (-- o --) and presence (-- o --) of NAP800 (50 μM). […]
Following transfer, the extra protein binding sites on the membrane were blocked by addition of 3% (w/v) BSA in TBST (20 mM Tris, 137 mM NaCl, 1% (v/v) Tween 20, pH 7.6) and agitated gently at room temperature for 30 minutes. The biotin-labelled proteases were then detected by addition of Streptavidin-HRP (Vector Laboratories) in 3% (w/v) BSA in TBST at a concentration of 1:20000, for 1 hour at room temperature. […]

O=C(CCCCC1SCC2NC(=O)NC21)NCCCOCCOCCOCCCNC(=O)CNC(=O)CNC(=O)CN(Cc1ccccc1)C(=O)ON1C(=O)CCC1=O (stereo not drawn) [NAP849, Succinimidoyl-CO-NPhe-Gly-Gly-PEG-Biotin]
labelling of chymotrypsin by ABP (western blot): detection of a strong band corresponding to the molecular weight of chymotrypsin

From paper PMC9555310, “Novel inhibitors and activity-based probes targeting serine proteases” (Frontiers in Chemistry, 2022)
